For test [1], the system named is HEK293G cells stably expressing SNAP-CXCR4. In words: Confocal microscopy of fluorescent ligand binding. The test is classed as cell-based, human. The conditions noted are these: for localisation of fluorescence in cells: 30 min at 37 °C; for binding after treatment with AMD3100: 10 μM AMD3100, 30 min pre-incubation; for membrane fluorescence after pretreatment with IT1t or AMD3100: 10 μM IT1t or 10 μM AMD3100, 30 min pre-incubation. The method, then:
HEK293G-SNAP-CXCR4 cells were seeded onto poly-D-lysine-coated (10 μg/mL) 8-well Nunc Lab-tek chambered coverglass (no. 1.0 borosilicate glass bottom) in DMEM supplemented with 10% FCS at a density of 30,000 cells per well. The following day, media were replaced with fresh media supplemented with 10% FCS containing 0.5 μM SNAP-Surface Alexa Fluor 488 (New England Biolabs, Hitchin UK) for 30 min at 37 °C. […]
Cells were imaged on a Zeiss LSM880 with a Zeiss Axio Observer Z1 stand (Carl Zeiss, Germany) using a 40× C-apochromat NA1.2 water immersion objective. Excitation was via a 488 nm argon (to image SNAP-Surface Alexa Fluor 488) and 633 nm helium-neon (to image fluorescent ligands) laser lines with a 488/561/633 multibeam splitter and emission collected using a 493–628 nm band pass or 638–737 nm band pass. The pinhole was set at 1 Airy unit for the longer wavelength and laser power and gain and offset settings kept constant within the experiment to allow comparison. Equatorial plane images were made and four images were captured per condition per experiment using ZEN 2012 software (Carl Zeiss, Germany). Imaging of each ligand was performed at least three times.

The next test deals with T1, NLuc-CXCR4 (Homo sapiens, UniProt P61073).
T1 construct: expressed in transfected cells; membranes prepared from them
T1 sequence (P61073 whole entry): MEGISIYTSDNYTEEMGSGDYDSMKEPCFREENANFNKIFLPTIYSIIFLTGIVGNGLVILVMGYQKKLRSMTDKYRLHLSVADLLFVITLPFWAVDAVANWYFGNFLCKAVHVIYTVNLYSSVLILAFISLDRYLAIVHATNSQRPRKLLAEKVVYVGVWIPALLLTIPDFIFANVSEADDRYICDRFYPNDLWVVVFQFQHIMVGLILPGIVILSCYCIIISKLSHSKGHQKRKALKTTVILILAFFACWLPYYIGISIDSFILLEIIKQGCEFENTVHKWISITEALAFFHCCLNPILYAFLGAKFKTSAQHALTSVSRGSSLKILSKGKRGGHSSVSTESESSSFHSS
Type of test: binding.

Description for NLuc-CXCR4: In white clear-bottom 96-well plates or white opaque bottom 96-well plates, membranes expressing NLuc-CXCR4 were diluted to 10 μg per well in 20 μL of HBSS containing 0.2% BSA. […] Plates were then incubated in the dark for 2 h at 37 °C in the absence of CO2. The NLuc substrate furimazine (Promega Corporation) was then added (5 μL per well, 10 μM final concentration) and the plates were read using the PHERAstar FS plate reader (BMG Labtech, UK) at room temperature. The filtered light from each well was simultaneously measured using a 460 nm (80 nm band-pass filter) for NLuc emission and >610 nm longpass filter for fluorescence emission of BODIPY 630/650-X coupled ligands. For BODIPY-FL-X coupled ligands, emissions were simultaneously measured at 475 nm (30 nm band-pass filter; NLuc emission) and 535 nm (30 nm bandpass filter; BODIPY FL-X emission). The resulting raw BRET ratio was calculated by dividing the >610 nm emission (for red ligands) or the 535 nm emission (for green ligands) by the emissions measured for NLuc. […]

In the case of `CN(Cc1ncc2ccccc2c1CCCNC(=O)CCCCCNC(=O)COc1ccc(/C=C/C2=[N+]3C(=Cc4ccc(-c5cccs5)n4[B-]3(F)F)C=C2)cc1)[C@H]1CCCc2cccnc21` [Compound 18a, (S,E)-6-(2-(4-(2-(5,5-Difluoro-7-(thiophen-2-yl)-5H-4λ^4,5λ^4-dipyrrolo[1,2-c:2′,1′-f][1,3,2]diazaborinin-3-yl)vinyl)phenoxy)acetamido)-N-(3-(3-((methyl(5,6,7,8-tetrahydroquinolin-8-yl)amino)methyl)isoquinolin-4-yl)propyl)hexanamide], in test [1] (50 nM ligand), the “localisation of fluorescence in cells” value is given as “reasonable membrane fluorescence; however, intracellular fluorescence was also apparent” and the “binding after treatment with AMD3100” value is “reduced binding to cell surface receptors”.

Turning to `CC1(C)CN2C(CS/C(=N/[C@H]3CC[C@H](NC(=O)CCCCCNC(=O)COc4ccc(/C=C/C5=[N+]6C(=Cc7ccc(-c8cccs8)n7[B-]6(F)F)C=C5)cc4)CC3)NC3CCCCC3)=CSC2=N1` [Compound 10, (6,6-Dimethyl-5,6-dihydroimidazo[2,1-b]thiazol-3-yl)methyl (E)-N-Cyclohexyl-N′-((1R,4R)-4-(6-(2-(4-((E)-2-(5,5-difluoro-7-(thiophen-2-yl)-5H-4λ^4,5λ^4-dipyrrolo[1,2-c:2′,1′-f][1,3,2]diazaborinin-3-yl)vinyl)phenoxy)acetamido)hexanamido)cyclo-hexyl)carbamimidothioate], in test [1] (100 nM ligand), the “localisation of fluorescence in cells” value is “localized membrane fluorescence and very little intracellular fluorescence”; the “membrane fluorescence after pretreatment with IT1t or AMD3100” value is “substantially reduced”.

“CXCL12: chemokine, the only endogenous ligand of CXCR4, purchased from PeproTech”: in the test with NLuc-CXCR4, the “concentration-dependent decrease of the BRET signal” value is “not” and the “displacement of fluorescently labeled CXCL12” value is on record as “fully displaced”.

Turning to `CN1\C(=C/C=C/C=C/C2=[N+](CCCCCC(=O)N[C@H]3CC[C@H](/N=C(/NC4CCCCC4)SCC4=CSC5=NC(C)(C)CN45)CC3)c3ccc(S(=O)(=O)[O-])cc3C2(C)C)C(C)(C)c2cc(S(=O)(=O)O)ccc21` [Compound 11, 1-(6-(((1R,4R)-4-(((Z)-(Cyclohexylamino) (((6,6-dimethyl-5,6-dihydroimidazo[2,1-b]thiazol-3-yl)methyl)thio)methylene)amino)cyclohexyl)amino)-6-oxohexyl)-3,3-dimethyl-2-((1E,3E)-5-((Z)-1,3,3-trimethyl-5-sulfoindolin-2-ylidene)penta-1,3-dien-1-yl)-3H-indol-1-ium-5-sulfonate], in test [1] (100 nM ligand), the “localisation of fluorescence in cells” value is “highly localized to the cell membrane” and the “membrane fluorescence after pretreatment with IT1t or AMD3100” value is on record as “completely prevented”.

Turning to `O=C(CCCCCNC(=O)COc1ccc(/C=C/C2=[N+]3C(=Cc4ccc(-c5cccs5)n4[B-]3(F)F)C=C2)cc1)NCCCCN(Cc1nc2ccccc2[nH]1)[C@H]1CCCc2cccnc21` [Compound 24, (S,E)-N-(4-(((1H-Benzo[d]imidazole-2-yl)methyl) (5,6,7,8-tetrahydroquinolin-8-yl)amino)butyl)-6-(2-(4-(2-(5,5-difluoro-7-(thiophen-2-yl)-5H-4λ4,5λ4-dipyrrolo [1,2-c:2′,1′-f][1,3,2]diazaborinin-3-yl)vinyl)phenoxy)acetamido)hexanamide], in test [1] (50 nM ligand), the “localisation of fluorescence in cells” value is listed as “reasonable membrane fluorescence; however, intracellular fluorescence was also apparent” and the “binding after treatment with AMD3100” value is on record as “reduced binding to cell surface receptors”.
